Changes are numbered by the printed parent chain. pIC50: −log10 of the molar value. Where two headings read alike, the source gives them in different places.
What was measured:
[1] = target: T1, wild type human 5HT2A receptor (Homo sapiens, UniProt P28223); assay: Competitive binding assay, [3H]LSD, WT 5HT2A
T1 construct: expressed in transfected cells; host or cells: COS-7 cells, pCMV vector

[2] = test system: dopamine D2 receptors (caudate nucleus); assay: I125-LSD displacement from rat brain sections, caudate nucleus; type: binding, Sprague-Dawley rats; settings: 1 micromolar compound, 1 nanomolar I125-LSD, autoradiography
[3] = target: T2, human mutated 5HT2A receptor, AP-3 (Homo sapiens, UniProt P28223, T25N); assay: Inositol phosphate accumulation assay, AP-3; type: cell-based; settings: for IC50: Inositol Phosphate Accumulation AP-3 IC50 Value (μM); for pIC50: several concentrations, read-out: IP3 AP-3 IC50;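 for all read-outs here: transfected 293 cells prelabeled with 3H-inositol, exposed to compound 120 min at 37 °C with LiCl and pargyline, inositol trisphosphates isolated by anion exchange and counted by scintillation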
T2 construct: Inositol Phosphate Accumulation AP-3 IC50 Value (nM); other: several concentrations; IP3 % of Control; other: one concentration of 10 μM, triplicate; control without test compound
T2 sequence (P28223 whole entry T25N, looked up): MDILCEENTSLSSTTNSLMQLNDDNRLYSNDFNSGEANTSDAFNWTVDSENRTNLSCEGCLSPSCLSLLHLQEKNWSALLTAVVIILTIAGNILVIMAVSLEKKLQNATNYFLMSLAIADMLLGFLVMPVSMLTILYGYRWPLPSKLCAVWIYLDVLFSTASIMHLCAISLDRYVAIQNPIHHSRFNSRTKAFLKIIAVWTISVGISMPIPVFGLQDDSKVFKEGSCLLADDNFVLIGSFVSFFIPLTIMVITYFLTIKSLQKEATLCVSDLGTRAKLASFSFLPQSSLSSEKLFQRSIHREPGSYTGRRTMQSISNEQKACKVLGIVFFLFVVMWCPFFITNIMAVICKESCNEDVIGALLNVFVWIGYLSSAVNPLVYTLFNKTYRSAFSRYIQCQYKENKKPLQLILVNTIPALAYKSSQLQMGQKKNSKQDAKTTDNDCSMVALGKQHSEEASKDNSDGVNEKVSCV

[4] = target: T3, mutated human 5HT2C receptor (AP-1) (Homo sapiens, UniProt P28335, S310K); assay: Competitive binding assay, [3H]mesulergine, AP-1; settings: Competitive Binding AP-1 ([3H]mesulergine) IC50 Value (μM), 1 nM [3H]mesulergine, COS7 membranes
T3 construct: expressed in transfected cells; host or cells: COS7 cells, pCMV vector, transient
T3 sequence (P28335 33-458 S310K): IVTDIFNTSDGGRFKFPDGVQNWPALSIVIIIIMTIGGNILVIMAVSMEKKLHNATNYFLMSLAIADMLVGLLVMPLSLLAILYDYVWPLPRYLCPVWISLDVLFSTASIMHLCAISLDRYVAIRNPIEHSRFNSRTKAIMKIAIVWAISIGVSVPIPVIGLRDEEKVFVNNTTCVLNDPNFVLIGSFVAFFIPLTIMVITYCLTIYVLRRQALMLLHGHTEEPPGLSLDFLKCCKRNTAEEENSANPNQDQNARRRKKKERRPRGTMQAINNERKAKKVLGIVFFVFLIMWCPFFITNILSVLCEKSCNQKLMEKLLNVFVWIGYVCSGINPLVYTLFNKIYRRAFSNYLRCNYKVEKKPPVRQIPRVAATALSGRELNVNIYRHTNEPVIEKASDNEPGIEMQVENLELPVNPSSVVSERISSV

[5] = target: T4, 5HT2A receptors (fourth layer of the cerebral cortex) (Rattus norvegicus, UniProt P14842); assay: I125-LSD displacement from rat brain sections, cerebral cortex; type: binding, Sprague-Dawley rats; settings: 1 micromolar compound, 1 nanomolar I125-LSD, autoradiography
T4 construct: from tissue; host or cells: horizontal sections of Sprague-Dawley rat brain, cerebral cortex
T4 sequence (P14842 whole entry): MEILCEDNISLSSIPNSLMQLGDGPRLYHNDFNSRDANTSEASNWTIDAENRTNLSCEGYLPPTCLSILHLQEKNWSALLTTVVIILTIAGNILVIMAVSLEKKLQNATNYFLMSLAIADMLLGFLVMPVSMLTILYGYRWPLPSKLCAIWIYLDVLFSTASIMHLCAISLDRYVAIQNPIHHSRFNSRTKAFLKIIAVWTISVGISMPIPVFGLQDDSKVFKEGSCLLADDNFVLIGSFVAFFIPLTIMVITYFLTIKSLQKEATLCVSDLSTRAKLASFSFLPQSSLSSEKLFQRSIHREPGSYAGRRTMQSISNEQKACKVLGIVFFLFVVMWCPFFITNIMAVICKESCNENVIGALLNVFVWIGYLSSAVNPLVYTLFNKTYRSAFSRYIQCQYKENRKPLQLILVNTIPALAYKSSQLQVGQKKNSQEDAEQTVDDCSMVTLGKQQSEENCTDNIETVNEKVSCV

[6] = test system: amphetamine-stimulated locomotion; assay: Amphetamine-stimulated locomotor activity; type: in vivo, Sprague-Dawley rats; settings: rats, s.c. 0.1, 1.0, 5.0 mg/kg; with exception of the highest dose (10 mg/kg); d-amphetamine sulfate 1.0 mg/kg
Text: A 5HT2A receptor antagonist or inverse agonist is expected to decrease amphetamine-stimulated locomotion without affecting baseline locomotion See, for example, Soresnon, et al, 266(2) J. Pharmacol. Exp. Ther. 684 (1993). […] For the following study, the following parameters and protocol were utilized:
Adult male Sprague-Dawley rats were utilized for these studies. Animals were housed in groups of 2-3 in hanging plastic cages with food and water available at all times. Animals were weighed and handled for at least one day prior to surgery and throughout the studies. For these studies, Vehicle consisted of 90% ethanol (100%) and 10% water.
A San Diego Instruments Flex Field apparatus was used to quantify baseline and amphetamine-stimulated locomotor activity. This apparatus consists of four 16″×16″ clear plastic open fields. Photocell arrays (16 in each dimension) interfaced with a personal computer to automatically quantify activity. Several measures of activity can be assessed with the apparatus, including total photocell beam breaks. Animals (vehicle control and Compound treated) were injected s.c. 30 minutes prior to initiation of analysis. Following this 30 minute period, animals were placed individually into an open field and baseline activity was assessed for 30 minutes (habituation phase). […]

[7] = target: T5, human mutated 5HT2A receptor, AP-3 (Homo sapiens, UniProt P28223, T25N, form not given); assay: Inositol phosphate accumulation assay, AP-3; type: cell-based; settings: summary statement;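 note: transfected 293 cells prelabeled with 3H-inositol, exposed to compound 120 min at 37 °C with LiCl and pargyline, inositol trisphosphates isolated by anion exchange and counted by scintillation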
T5 construct: rows headed: inverse agonist activity at the human 5HT2A receptor; other: summary statement; fused on or other part: Possibly intracellular loop 3 and cytoplasmic tail of human 5-HT2C (P28335), if the statement rests on AP-3
T5 sequence (P28223 whole entry T25N, looked up, form open, the tested form may be a part): as the sequence (P28223 whole entry T25N, looked up) above

[8] = target: T6, constitutively active mutant human 5HT2C receptor AP-1 (Homo sapiens, UniProt P28335, S310K); assay: [35S]GTPγS binding assay with membranes of COS7 cells expressing AP-1; type: biochemical; settings: for IC50: read-out: IC50 (nM) in GTP-γ-[35S] Assay
T6 construct: expressed in transfected cells; host or cells: COS7 cells, pCMV vector, transient
T6 sequence (P28335 33-458 S310K): T3 sequence (P28335 33-458 S310K)

[9] = target: T7, endogenous human 5-HT2C receptor (Homo sapiens, UniProt P28335)
T7 sequence (P28335 33-458): T3 sequence (P28335 33-458 S310K) with K278S

[10] = competitive binding using LSD, read-out: WT 5HT2A LSD IC50
[11] = 12.5 μg COS7 membranes expressing AP-1, 1 μM GDP, eight concentrations in triplicate

T1 sequence (P28223 whole entry T25N/H452Y): as the sequence (P28223 whole entry T25N, looked up) above, with H452Y counted along it

With `COc1ccc(OC(=O)Nc2cccc(-c3nn(C)cc3Br)c2)cc1` [Compound 116100, N-[3-(4-bromo-1-methylpyrazol-3-yl)phenyl][4-methoxyphenoxy]carboxamide] the pIC50 [1] was greater than 9.00, the “displacement of I125-LSD from the caudate (dopamine D2)” value [2] was “not the caudate” and the IC50 [3] was 0.0003 µM. The IC50 [4] was 1.8 µM, the “displacement of I125-LSD from the cortex (5HT2A)” value [5] was “selectively displace” and the melting point was 140.3 to 141.8 °C.
Work on `Cn1cc(Br)c(-c2cccc(NC(=O)c3ccc(OC(F)(F)F)cc3)c2)n1` [Compound 116101, N-[3-(4-bromo-1-methylpyrazol-3-yl)phenyl][4-trifluoromethoxyphenyl]carboxamide] yielded a melting point of 138.6 to 139.6 °C.
With `Cn1cc(Br)c(-c2cccc(NC(=O)c3cccs3)c2)n1` [Compound 116102, N-[3-(4-bromo-1-methylpyrazol-3-yl)phenyl][2-thienyl]carboxamide] the “amphetamine-stimulated locomotion (photobeam breaks)” value [6] was “decrease”, the “inverse agonist activity at the human 5HT2A receptor” value [7] was “potent inverse agonist” and the IC50 [4] was 2.8 µM. For the same compound, the melting point was 127.8 to 128.6 °C.
For `Cn1cc(Br)c(-c2cccc(NC(=O)NCc3ccc(OC(F)(F)F)cc3)c2)n1` [Compound 116115], the IC50 [4] was 1.2 µM and the melting point was 144.6 to 145.8 °C.
Compound `Cn1cc(Br)c(-c2cccc(NC(=O)c3ccc(Cl)cc3)c2)n1` [Compound 116120, N-[3-(4-bromo-1-methylpyrazol-3-yl)phenyl][4-chlorophenyl]carboxamide] has an IC50 [4] of 1.2 µM and a melting point of 184.4 to 184.8 °C.
`Cn1cc(Br)c(-c2cccc(NC(=O)NCc3ccc(F)cc3)c2)n1` [Compound 116182, N-[3-(4-bromo-1-methylpyrazol-3-yl)phenyl]-[{(4-fluorophenyl)methyl}amino]carboxamide] gave a pIC50 [1, 10] of 6.88 and a pIC50 [3] of 7.05.
With `Cn1cc(Br)c(-c2cccc(NC(=O)OC(C)(C)C)c2)n1` [Compound 116192] the pIC50 [1] was 7.85 and the IC50 [3] was 0.057 µM.
`COc1ccc(CCNC(=O)Nc2cccc(-c3nn(C)cc3Br)c2)cc1` [Compound 116194, N-[3-(4-bromo-1-methylpyrazol-3-yl)phenyl][{2-(4-methoxyphenyl)ethyl}amino]carboxamide] gave a pIC50 [1, 10] of 7.21 and a pIC50 [3] of 7.49.
With `CSc1ccc2c(c1)C(N1CCN(C)CC1)Cc1ccccc1S2` (centres unmarked) [Methiothepin] the IC50 [8, 11] was 20.4 nM.
With `CC[C@@H](CO)NC(=O)[C@@H]1C=C2c3cccc4c3c(cn4C)C[C@H]2N(C)C1` [Methysergide] the pIC50 [8] was 8.21.
`Clc1ccc2c(c1)N=C(N1CCNCC1)c1ccccc1N2` [Normethylclozapin] showed an IC50 [8, 11] of 21.4 nM.
In the case of `Cc1nc2sccn2c(=O)c1CCN1CCC(=C(c2ccc(F)cc2)c2ccc(F)cc2)CC1` [Ritanserin], the IC50 [8] was 19.4 nM.
With `CN1CCN2c3ccccc3Cc3ccccc3C2C1` (centres unmarked) [mianserin] the “effect on basal constitutive binding of [35S]GTPγS” value [9] was “partial inverse agonist” and the “inhibition of serotonin-stimulated [35S]GTPγS binding” value ([9]; 30 μM) was “completely inhibited”.
In the case of `O=C(CCCN1CCC2(CC1)C(=O)NCN2c1ccccc1)c1ccc(F)cc1` [spiperone, reference compound], the “displacement of I125-LSD from the caudate (dopamine D2)” value [2] was “displaces” and the “displacement of I125-LSD from the cortex (5HT2A)” value [5] was “displaces”.
